# From patent publication US6156724A, “Uses of didemnins as immunomodulating agents” (priority 1998, dated 2000)
# Numbered stars: 1 amine (or outer) side, 2 acyl side, 3 side chain; on linkers, the order of the positions; unused ones are H or OH. Bridge positions count the residues as written; N and C are the ends. Square brackets hold non-standard residues; d marks the D form. Peptide text beside a SMILES is read from it. * marks the point of attachment. X1 = CC[C@H](C)[C@@H](N[*:1])[C@@H](O)CC(=O)O[C@H](C(=O)[C@H](C)C(=O)[*:2])C(C)C; NMeY = CN[C@@H](Cc1ccc(O)cc1)C(=O)O; dNMeL = CN[C@H](CC(C)C)C(=O)O; pGlu = O=C1CC[C@@H](C(=O)O)N1; Isobutyryl = CC(C)C(=O)*; Hexanoyl = CCCCCC(=O)*; Lac = C[C@H](O)C(=O)O
# Assays:
# [1] = tested on: murine splenocytes (Balb/c and C57B1/6); test: Two-way mixed lymphocyte reaction (MLR) assay; details: Balb/c + C57B1/6 splenocytes, 96 h, [3H]thymidine; for IC50: read-out: two-way mixed lymphocyte reaction (MLR) suppression MLR, IC50;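 for all read-outs here: proliferation read as tritiated thymidine incorporation into newly made DNA after an overnight pulse, expressed as percent of control activity, IC50 interpolated per compound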
# [2] = tested on: Balb/c splenocytes (resting lymphocytes); test: Lymphocyte viability (LcV) assay; assay type: cell-based, murine; details: unstimulated Balb/c splenocytes, MTT
# Method: Forty two (42) didemnin compounds (see Table 1) were evaluated for cytotoxicity to one of the lymphocyte populations in the MLR (i.e., Balb/c splenocytes). The purpose of the lymphocyte viability assay (LcV) is to measure metabolic activity in lymphocytes after they have been exposed to the compounds for the duration of an under conditions equivalent to the MLR. The inverse of the data yields cytotoxicity information about the compounds on murine lymphocytes. The rationale of using resting cells, in this case unstimulated lymphocytes, to measure cytotoxicity has a strategic importance. In the MLR the heterogenous cell populations are predominantly resting cells when the assay begins.
# Test compounds were prepared in two sets as described above. Splenocytes were prepared as described previously from one murine strain (Balb/c), and a volume of 200 μL of the cell suspension was added to one set of test compounds and control wells.
# Assay plates were incubated as in the MLR and then pulsed overnight 75 μL per well MTT-thiazolyl blue solution (150 μg). The plates were decanted and the resulting insoluble formazan crystals were dissolved in 200 μL of isopropyl alcohol. Absorbance at 570 nm was measured.
# The LcV data were calculated as a percentage of basal metabolic activity, or percent viability, relative to BALB/c control, and an LC50 value was interpolated for each test compound.
# [3] = tested on: concanavalin A-induced lymphoblasts (Con A splenocytes); test: Lymphoblast viability (LbV) assay; details: Con A-stimulated splenocytes (lymphoblasts), MTT
Structure (SMILES),"two-way mixed lymphocyte reaction (MLR) suppression MLR, IC50 [1] [ng/mL]",IC50 [1] [nM],"cytoxicity to lymphocytes LcV, LC50 [2] [nM]","cytoxicity to lymphocytes LcV, LC50 ([2]; highest concentration 10 μg/mL) [µg/mL]","cytotoxicity to lymphocytes LbV, LC50 [3] [nM]"
"CC[C@H](C)[C@H]1NC(=O)[C@@H](NC(=O)[C@@H](CC(C)C)N(C)C(=O)[C@@H]2CCCN2C(=O)[C@H](C)OC(=O)[C@H](CCC(N)=O)NC(=O)[C@H](CCC(N)=O)NC(=O)[C@H](CCC(N)=O)NC(=O)[C@@H]2CCC(=O)N2)[C@@H](C)OC(=O)[C@H](Cc2ccc(OC)cc2)N(C)C(=O)[C@@H]2CCCN2C(=O)[C@H](CC(C)C)NC(=O)[C@@H](C)C(=O)[C@H](C(C)C)OC(=O)C[C@@H]1O [Compound 40, Didemnin D] ([pGlu]QQQ[Lac]P[dNMeL]T[X1]LP[NMeY](Me); ester 8-C)",0.20,0.12,> 6220,> 10,0.85
"CC[C@H](C)[C@H]1NC(=O)[C@@H](NC(=O)[C@@H](CC(C)C)N(C)C(=O)[C@@H](N)CC(C)C)[C@@H](C)OC(=O)[C@H](Cc2ccc(OC)cc2)N(C)C(=O)[C@@H]2CCCN2C(=O)[C@H](CC(C)C)NC(=O)[C@@H](C)C(=O)[C@H](C(C)C)OC(=O)C[C@@H]1O [Compound 27, N-(L-Leu)Didemnin A] (H-L[dNMeL]T[X1]LP[NMeY](Me); ester 3-C)",0.78,0.74,> 9500,> 10,3.8
"CC[C@H](C)[C@H]1NC(=O)[C@@H](NC(=O)[C@@H](CC(C)C)N(C)C(=O)[C@@H]2CCCN2C(=O)C(C)C)[C@@H](C)OC(=O)[C@H](Cc2ccc(OC)cc2)N(C)C(=O)[C@@H]2CCCN2C(=O)[C@H](CC(C)C)NC(=O)[C@@H](C)C(=O)[C@H](C(C)C)OC(=O)C[C@@H]1O [Compound 33, [Isobutyryl^9]Didemnin B] (Isobutyryl-P[dNMeL]T[X1]LP[NMeY](Me); ester 3-C)",0.041,0.037,2240,2.40,0.204
"CC[C@H](C)[C@H]1NC(=O)[C@@H](NC(=O)[C@@H](CC(C)C)N(C)C(=O)[C@@H]2CCCN2)[C@@H](C)OC(=O)[C@H](Cc2ccc(OC)cc2)N(C)C(=O)[C@@H]2CCCN2C(=O)[C@H](CC(C)C)NC(=O)[C@@H](C)C(=O)[C@H](C(C)C)OC(=O)C[C@@H]1O [Compound 28, N^α -(L-Pro)Didemnin A] (H-P[dNMeL]T[X1]LP[NMeY](Me); ester 3-C)",1.00,0.96,> 9600,> 10,5.1
"CC[C@H](C)[C@H]1NC(=O)[C@@H](NC(=O)[C@@H](CC(C)C)N(C)C(=O)[C@@H]2CCCN2C(=O)[C@H](C)O)[C@@H](C)OC(=O)[C@H](CC2CCCCC2)N(C)C(=O)[C@@H]2CCCN2C(=O)[C@H](CC(C)C)NC(=O)[C@@H](C)C(=O)[C@H](C(C)C)OC(=O)C[C@@H]1O [Compound 16, [H6 -N-MePhe^6]Didemnin B]",0.57,0.52,> 9200,> 10,0.73
"CC[C@H](C)[C@H]1NC(=O)[C@@H](NC(=O)[C@@H](CC(C)C)NC)[C@@H](C)OC(=O)[C@H](Cc2ccc(OC)cc2)N(C)C(=O)[C@@H]2CCCN2C(=O)[C@H](CC(C)C)NC(=O)[C@@H](C)C(=O)[C@H](C(C)C)OC(=O)C[C@@H]1O [Compound 2, Didemnin A] (H-[dNMeL]T[X1]LP[NMeY](Me); ester 2-C)",0.93,0.98,> 11000,> 10,15
"CCCCCC(=O)N(C)[C@H](CC(C)C)C(=O)N[C@@H]1C(=O)N[C@H]([C@@H](C)CC)[C@@H](O)CC(=O)O[C@@H](C(C)C)C(=O)[C@H](C)C(=O)N[C@@H](CC(C)C)C(=O)N2CCC[C@H]2C(=O)N(C)[C@@H](Cc2ccc(OC)cc2)C(=O)O[C@@H]1C [Compound 22, N^α -Hexanoyldidemnin A] (Hexanoyl-[dNMeL]T[X1]LP[NMeY](Me); ester 2-C)",0.022,0.021,9600,> 10,0.11
